According to PubChem BioAssay AID1033 (Sanford-Burnham Center for Chemical Genomics, 2008):
Activity calls are given as the source filed them. No rule for the calls is given here.

The compounds below were run against Chaperone protein DnaK (Escherichia coli (strain K12)) (UniProt P0A6Y8) (assay: E. coli DnaK SBD ligand binding – biophysical, NMR, chaperone (AID 1033)). Details: Purified DnaK SBD.
Chain of Chaperone protein DnaK (Escherichia coli (strain K12)) (P0A6Y8 whole entry, looked up): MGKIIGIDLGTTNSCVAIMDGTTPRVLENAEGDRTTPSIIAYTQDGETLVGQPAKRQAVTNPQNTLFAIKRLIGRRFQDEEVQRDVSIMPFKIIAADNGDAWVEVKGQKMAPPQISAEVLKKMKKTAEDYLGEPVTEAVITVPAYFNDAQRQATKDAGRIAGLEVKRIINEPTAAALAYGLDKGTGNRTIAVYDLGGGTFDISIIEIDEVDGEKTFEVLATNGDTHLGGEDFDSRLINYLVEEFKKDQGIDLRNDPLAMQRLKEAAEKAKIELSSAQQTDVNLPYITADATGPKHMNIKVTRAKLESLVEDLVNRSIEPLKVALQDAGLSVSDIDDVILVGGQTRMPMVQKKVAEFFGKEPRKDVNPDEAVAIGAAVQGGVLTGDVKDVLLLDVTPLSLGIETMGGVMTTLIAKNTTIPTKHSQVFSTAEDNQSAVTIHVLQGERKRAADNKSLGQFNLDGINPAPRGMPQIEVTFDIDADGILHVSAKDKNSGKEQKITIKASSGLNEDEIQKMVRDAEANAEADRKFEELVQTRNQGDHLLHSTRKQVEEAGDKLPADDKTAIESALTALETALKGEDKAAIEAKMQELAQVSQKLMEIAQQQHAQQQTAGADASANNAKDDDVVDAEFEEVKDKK

Row | SMILES | Kd
1 | CSc1nc2cc(F)c(F)cc2n1C | > 4 mM (inactive)
2 | Cc1nnc(SCC(N)=O)c2ccccc12 | > 4 mM (inactive)
3 | Cc1cc(Oc2ccccc2)nc(N)n1 | > 4 mM (inactive)
4 | Cc1nc2ccc(C(=O)O)cc2[nH]1 | > 4 mM (inactive)
5 | C#CCCCCCCCCCCCC(O)CC(O)COC(C)=O (configuration not stated) | > 4 mM (inactive)
6 | CN1C(=O)/C(=C\c2ccc[nH]2)SC1=S | > 4 mM (inactive)
7 | O=C1CSC(=S)N1Cc1cccnc1 | > 4 mM (inactive)
8 | N#Cc1sc2nc3c(c(-c4cccnc4)c2c1N)CCC3 | > 4 mM (inactive)
9 | Cc1nc2ccc(C(=O)N3CCSCC3)cc2s1 | > 4 mM (inactive)
10 | O=C1NC(=O)C(c2ccccc2)C(=O)N1 | > 4 mM (inactive)
11 | O=C(NCCCSc1ncccn1)Nc1ncccn1 | > 4 mM (inactive)
12 | O=c1c2ccccc2oc2ccc(O)cc12 | > 4 mM (inactive)
13 | COc1cc(O)c(C(C)=O)c(OC)c1 | > 4 mM (inactive)
14 | COCC(=O)OCn1nnc2ccccc2c1=O | > 4 mM (inactive)
15 | Cc1nn(-c2ccccc2C(=O)O)c(=O)c2ccccc12 | > 4 mM (inactive)
16 | CC(CC(O)C1OC1(C)C)[C@@H]1CCC2(C)C3=CCC4C(C)(C)C(=O)CCC4(C)C3CC[C@@]12C (some centres not stated) | > 4 mM (inactive)
17 | O=C(O)CC[N+](=O)[O-] | > 4 mM (inactive)
18 | Cn1c(=O)n(C)c2nc([N+](=O)[O-])c(Cl)cc21 | > 4 mM (inactive)
19 | COc1cc2c(cc1OC)[C@@H]1C(=O)c3ccc4oc(C(C)C)cc4c3O[C@@H]1CO2 | > 4 mM (inactive)
20 | Cc1c(C)[n+](=O)c(-c2cccs2)c(C)n1[O-] | > 4 mM (inactive)
21 | NC(=O)NC1NC(=O)NC1=O (configuration not stated) | > 4 mM (inactive)
22 | CC1CN=C(Nc2ccccc2)S1 (configuration not stated) | > 4 mM (inactive)

Row | SMILES | Kd
23 | O=c1[nH]cnc2c1nnn2Cc1ccccc1 | > 4 mM (inactive)
24 | NC(=O)CCN1C(=O)c2ccccc2C1=O | > 4 mM (inactive)
25 | C[C@H]1C[C@@H](O)[C@]2(O)[C@@]13CC(=O)OC[C@@]2(C)[C@](C)(O)C(=O)C3 | > 4 mM (inactive)
26 | O=C(O)C1CC(=O)N(C2Cc3ccccc3C2)C1 (configuration not stated) | > 4 mM (inactive)
27 | Cc1ccc(N2C(=O)C3C4C=CC(O4)C3C2=O)cc1 (configuration not stated) | > 4 mM (inactive)
28 | C/C=C/c1ccc2c(c1)OCO2 | > 4 mM (inactive)
29 | CC(=O)Nc1ccc(NC(C)=O)cc1 | > 4 mM (inactive)
30 | O=C(O)c1cn(-c2ccccc2)nc1-c1ccncc1 | > 4 mM (inactive)
31 | Cc1cccc(NC(=O)c2ccccc2C(=O)O)c1 | > 4 mM (inactive)
32 | CC(C)(C)NC(=O)N1CCC(C(=O)O)CC1 | > 4 mM (inactive)
33 | CC(=O)N1CCc2cc(NC(=O)c3ccc(C)cc3)ccc21 | > 4 mM (inactive)
34 | COc1cc(C/C=C/c2ccccc2)c(OC)cc1O | > 4 mM (inactive)
35 | Nc1cc(=O)[nH]c(=O)n1Cc1ccco1 | > 4 mM (inactive)
36 | Cc1c(CO)cnn1-c1ccccc1 | > 4 mM (inactive)
37 | N#Cc1nc(-c2ccccc2Cl)oc1N1CCOCC1 | > 4 mM (inactive)
38 | CNC(=O)c1cc2cccc(OC)c2oc1=O | > 4 mM (inactive)
39 | CC(C)CCCC(C)[C@H]1CCC2C3CC[C@@H]4C[C@H](O)CC[C@]4(C)C3CC[C@@]21C (some centres not stated) | > 4 mM (inactive)
40 | CN1C(CC(=O)c2ccccc2)CCCC1CC(O)c1ccccc1 (configuration not stated) | > 4 mM (inactive)
41 | CNC(=O)Nc1cccc(C(F)(F)F)c1 | > 4 mM (inactive)
42 | OC1CNCc2cc3c(cc21)OCCO3 (configuration not stated) | > 4 mM (inactive)
43 | Cc1ccc(SCC(=O)N2CCOCC2)cc1 | > 4 mM (inactive)
44 | Cc1[nH]c(=O)[nH]c(=O)c1N1CCOCC1 | > 4 mM (inactive)

Row | SMILES | Kd
45 | O=c1cc(O)n(-c2ccc(F)cc2)c(=S)[nH]1 | > 4 mM (inactive)
46 | NCc1ccc(-n2cccc2)cc1 | > 4 mM (inactive)
47 | NC(=O)CC1Sc2ccccc2NC1=O (configuration not stated) | > 4 mM (inactive)
48 | Cc1noc(C)c1C(=O)Nc1sc(C)c(C)c1C#N | > 4 mM (inactive)
49 | O=C(O)CS(=O)(=O)c1ccccc1[N+](=O)[O-] | > 4 mM (inactive)
50 | Cc1ccc(C(=O)Nc2nnc(-c3ccncc3)s2)o1 | > 4 mM (inactive)
51 | Cc1ccc(-c2nnc3sc(-c4ccncc4)nn23)cc1 | > 4 mM (inactive)
52 | Cc1oc(-c2ccccc2)nc1CC(=O)O | > 4 mM (inactive)
53 | Cc1noc(C)c1C(=O)Nc1ccc2c(c1)CCC2 | > 4 mM (inactive)
54 | Nc1cccc(S(=O)(=O)N2CCCC2)c1 | > 4 mM (inactive)
55 | O=c1[nH]cc(CN2CCOCC2)c(=O)[nH]1 | > 4 mM (inactive)
56 | OCCCc1nc2ccc(C(F)(F)F)cc2[nH]1 | > 4 mM (inactive)
57 | O=C1CCc2ccccc2CN1 | > 4 mM (inactive)
58 | CC1(NC(=O)NCc2ccccc2)CCS(=O)(=O)C1 (configuration not stated) | > 4 mM (inactive)
59 | Cc1nn(CC(=O)N2CCCCC2)c(=O)c2ccccc12 | > 4 mM (inactive)
60 | Cn1nc(C(=O)N2CCOCC2)c2ccccc2c1=O | > 4 mM (inactive)
61 | O=[n+]1cc(-c2ccccc2)n([O-])c2c1CCC2 | > 4 mM (inactive)
62 | CN(C)C(=O)CSc1nc(N)cc(=O)[nH]1 | > 4 mM (inactive)
63 | CC(=O)Nc1ccc(C(=O)NC2=NCCS2)cc1 | > 4 mM (inactive)
64 | Cn1c(=O)c2c(ncn2C)n(C)c1=O | > 4 mM (inactive)
65 | Cc1cc(N)no1 | > 4 mM (inactive)
66 | CN1CCC(=NNC(=O)c2ccco2)CC1 | > 4 mM (inactive)

Row | SMILES | Kd
67 | COc1ccccc1N1C(=N)SCC1=O | > 4 mM (inactive)
68 | O=[N+]([O-])c1cccc(-c2nnco2)c1 | > 4 mM (inactive)
69 | CC(C)(C)CC(=O)NNC(=O)c1cnccn1 | > 4 mM (inactive)
70 | Cc1c(-c2ccccc2)[n+](=O)c(-c2ccco2)c(C)n1[O-] | > 4 mM (inactive)
71 | Cc1nn(C)c(Cl)c1C(O)c1c(C)nn(C)c1Cl | > 4 mM (inactive)
72 | COc1ccc2c(c1OC)C(=O)OC2[C@H]1c2c(cc3c(c2OC)OCO3)CCN1C (some centres not stated) | > 4 mM (inactive)
73 | COc1cccc(NC(=O)c2ncn[nH]2)c1 | > 4 mM (inactive)
74 | Cc1c(C(=O)N2CCOCC2)oc2c1C(=O)CC(C)(C)C2 | > 4 mM (inactive)
75 | N#CC(O[C@@H]1O[C@H](CO[C@@H]2O[C@H](CO)[C@@H](O)[C@H](O)[C@H]2O)[C@@H](O)[C@H](O)[C@H]1O)c1ccccc1 (some centres not stated) | > 4 mM (inactive)
76 | CC(=O)Nc1cccc(-c2n[nH]c(=S)n2C)c1 | > 4 mM (inactive)
77 | Cc1nc(-c2ccc(C(=O)O)s2)cs1 | > 4 mM (inactive)
78 | CCOC(=O)CNc1ncnc2c1nnn2CC | > 4 mM (inactive)
79 | CCOC(=O)Cc1cc(=O)n2[nH]c(C)cc2n1 | > 4 mM (inactive)
80 | O=S1(=O)CCC(NCCO)C1 (configuration not stated) | > 4 mM (inactive)
81 | O=C1CCCCCN1CO | > 4 mM (inactive)
82 | COC(=O)c1cncc(C(=O)OC)c1 | > 4 mM (inactive)
83 | O=C1CN2C(=N1)N(Cc1ccccc1)c1ccccc12 | > 4 mM (inactive)
84 | Cc1oc2nc3c(c(=O)[nH]c(=O)n3C)n2c1C | > 4 mM (inactive)
85 | COc1ccc2nc(N)sc2n1 | > 4 mM (inactive)
86 | COc1ccc(NC(=O)C(N)=O)cc1Cl | > 4 mM (inactive)
87 | COc1nc(C)ccc1-c1noc(-c2ccco2)n1 | > 4 mM (inactive)
